Results reported in US10718756B2, “Mitochondrial apoptotic sensor” (The Regents of the University of California, priority 2016, dated 2020).

How the values were obtained:
[1] = system: isolated mitochondria (HeLa and RS4;11 cells); assay: Graphene sensor measurement of extra-mitochondrial buffer pH of tethered isolated mitochondria; design: species or system mammalian
Source text: Here, is presented an electronic method to detect extra-mitochondrial pH of isolated mitochondria, based on tethering the mitochondria to one-atom thin graphene. The mitochondria are tethered via graphene bound antibodies which recognize the mitochondrial outer membrane protein, TOM20. Graphene is an excellent conductor and changes in the pH surrounding the mitochondria can change the graphene conductance and be detected electrically. Being optically transparent, the graphene layer also permits optical interrogation of the mitochondria concurrent with analysis of ionic changes.
An isolation buffer containing 225 mM mannitol, 75 mM sucrose, 0.5 mM EGTA, 20 mM HEPES, 0.5% (w/v) BSA, 1× protease inhibitor, pH 7.2 with 1 M KOH was used. […]
After mitochondria isolation, about 6 μg of mitochondrial protein of isolated mitochondria was loaded to a graphene device and incubated for 15 min at room temperature. […] The electrical measurement of Ids versus time and the fluorescence time-lapse measurement of TMRE signal were collected. […] In contrast, fluorescence images were taken once every 5 s for the experiments with CCCP or every 2 min for the experiments with BIM-BH3. […]
Control experiments were carried out in a similar manner with the only difference being the lack of isolated mitochondria. Software was used to analyze all electrical data and the fluorescence data that were exported from ImageJ software. […]

[2] = system: isolated mitochondria (HeLa and RS4;11 cells); assay: TMRE fluorescence measurement of inner membrane potential (ΔΨm) of tethered isolated mitochondria; design: species or system mammalian; details: TMRE signal
Experimental: Before isolation, the confluent cells were stained with 100 nM MITOTRACKER™ Green FM and 40 nM TMRE for 1 hour. Subsequent isolation steps used solutions with 40 nM TMRE because TMRE is a potentiometric dye, which fluctuates in and out of the mitochondria depending on their inner membrane potential. 40 nM was determined as the optimal concentration. Using an inverted microscope with two LED excitation sources (490 nm & 565 nm the red and green fluorescence signals from the MITOTRACKER™ and TMRE were visualized with 20× objective at 200 μm×300 μm, exposure time one second. To process and analyze the images, ImageJ software was used. For the entire field of view analysis, fluorescence intensity was measured from the field of view. In contrast, for single mitochondrion analysis, regions of interest enclosing the mitochondria were defined and three more identical copies of that region of interest were used to define the background noise. Fluorescence signal of the mitochondria was assigned as the measured signal subtracting the noise average. […] The electrical measurement of Ids versus time and the fluorescence time-lapse measurement of TMRE signal were collected. […] In contrast, fluorescence images were taken once every 5 s for the experiments with CCCP or every 2 min for the experiments with BIM-BH3. […]

[3] = exogenous agent, after BIM-BH3 induced MOMP

Compound	buffer pH (pHbuffer) ([1]; agent added to mitochondria on graphene device in KCl buffer with 5 mM succinate, 2 μM rotenone)	ΔΨm ([2]; agent added to mitochondria on graphene device in KCl buffer)	buffer acidification after BIM-BH3 induced MOMP [1, 3]	ΔΨm after BIM-BH3 induced MOMP [2, 3]
N#CC(C#N)=NNc1cccc(Cl)c1 [CCCP]	increase	decrease	–	–
cytochrome c [cytc]	–	–	blocks buffer acidification	rescues
